The record followed here is ChEMBL document CHEMBL1134917, “Substituted 4-anilino-7-phenyl-3-quinolinecarbonitriles as Src kinase inhibitors” (Bioorg Med Chem Lett, 2002).

What is called IC50 is the concentration needed to halve the response being measured. Read a low IC50 as greater potency. Broadly, the inhibition is the drop in the measured response relative to a control, in per cent. A high value points to strong suppression.

Some results are limits rather than exact numbers.

Assay [1] addresses Proto-oncogene tyrosine-protein kinase Src (Homo sapiens, UniProt P12931). The assay is described as follows: Inhibitory concentration against Src protein tyrosine kinase.
The nature of assay [2]: Inhibitory concentration required for the Src dependent cell proliferation using Src-transformed fibroblasts.
The target of assay [3] is Epidermal growth factor receptor (Homo sapiens, UniProt P00533). The assay is described as follows: Inhibition of Epidermal growth factor receptor.
For assay [4], the target named is Cyclin-dependent kinase 4 (Homo sapiens) (UniProt P11802). The assay is described as follows: Inhibition of Cyclin-dependent kinase 4 (CDK4) at ug/mL. As to conditions: concentration not given here.
Assay [5] has as its target Dual specificity mitogen-activated protein kinase kinase 1 (Homo sapiens, UniProt Q02750). The assay is described as follows: Inhibition of Dual specificity mitogen-activated protein kinase kinase, MEK.

Proto-oncogene tyrosine-protein kinase Src, sequence (P12931 2-536 limits assumed): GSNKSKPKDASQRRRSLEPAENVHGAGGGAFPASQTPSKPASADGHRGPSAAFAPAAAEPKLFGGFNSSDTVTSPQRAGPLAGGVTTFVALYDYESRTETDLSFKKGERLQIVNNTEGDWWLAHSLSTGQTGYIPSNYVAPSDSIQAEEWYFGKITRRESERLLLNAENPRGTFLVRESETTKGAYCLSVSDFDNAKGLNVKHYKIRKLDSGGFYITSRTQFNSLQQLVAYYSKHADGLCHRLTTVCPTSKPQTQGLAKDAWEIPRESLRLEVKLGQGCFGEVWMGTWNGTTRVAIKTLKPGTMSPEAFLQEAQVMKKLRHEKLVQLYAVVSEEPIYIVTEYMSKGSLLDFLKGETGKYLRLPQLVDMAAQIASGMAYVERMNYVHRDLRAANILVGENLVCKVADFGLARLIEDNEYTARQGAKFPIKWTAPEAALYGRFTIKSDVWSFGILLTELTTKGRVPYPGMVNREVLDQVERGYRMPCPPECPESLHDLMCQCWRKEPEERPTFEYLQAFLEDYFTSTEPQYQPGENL
Cyclin-dependent kinase 4 (Homo sapiens), sequence (P11802 whole entry): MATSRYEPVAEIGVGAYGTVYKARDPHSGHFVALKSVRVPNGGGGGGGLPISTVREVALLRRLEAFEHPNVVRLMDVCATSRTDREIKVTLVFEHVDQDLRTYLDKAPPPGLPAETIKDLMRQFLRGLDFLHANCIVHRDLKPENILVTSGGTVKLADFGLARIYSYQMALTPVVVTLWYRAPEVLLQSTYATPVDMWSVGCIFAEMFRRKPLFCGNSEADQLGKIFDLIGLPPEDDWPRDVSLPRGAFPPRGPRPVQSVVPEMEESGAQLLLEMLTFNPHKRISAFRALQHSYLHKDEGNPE
Dual specificity mitogen-activated protein kinase kinase 1, sequence (Q02750 whole entry): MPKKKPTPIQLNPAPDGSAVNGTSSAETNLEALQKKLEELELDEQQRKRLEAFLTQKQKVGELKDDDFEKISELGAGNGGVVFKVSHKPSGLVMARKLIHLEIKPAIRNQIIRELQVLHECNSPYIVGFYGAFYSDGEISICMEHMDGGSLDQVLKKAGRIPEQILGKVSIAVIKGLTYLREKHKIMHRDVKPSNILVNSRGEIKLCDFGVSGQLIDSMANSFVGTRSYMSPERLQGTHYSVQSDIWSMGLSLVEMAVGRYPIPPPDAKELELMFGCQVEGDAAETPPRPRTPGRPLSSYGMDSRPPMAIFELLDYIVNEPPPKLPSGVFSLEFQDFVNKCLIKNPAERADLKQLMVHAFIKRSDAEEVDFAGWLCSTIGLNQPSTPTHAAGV
Epidermal growth factor receptor, sequence (P00533 whole entry): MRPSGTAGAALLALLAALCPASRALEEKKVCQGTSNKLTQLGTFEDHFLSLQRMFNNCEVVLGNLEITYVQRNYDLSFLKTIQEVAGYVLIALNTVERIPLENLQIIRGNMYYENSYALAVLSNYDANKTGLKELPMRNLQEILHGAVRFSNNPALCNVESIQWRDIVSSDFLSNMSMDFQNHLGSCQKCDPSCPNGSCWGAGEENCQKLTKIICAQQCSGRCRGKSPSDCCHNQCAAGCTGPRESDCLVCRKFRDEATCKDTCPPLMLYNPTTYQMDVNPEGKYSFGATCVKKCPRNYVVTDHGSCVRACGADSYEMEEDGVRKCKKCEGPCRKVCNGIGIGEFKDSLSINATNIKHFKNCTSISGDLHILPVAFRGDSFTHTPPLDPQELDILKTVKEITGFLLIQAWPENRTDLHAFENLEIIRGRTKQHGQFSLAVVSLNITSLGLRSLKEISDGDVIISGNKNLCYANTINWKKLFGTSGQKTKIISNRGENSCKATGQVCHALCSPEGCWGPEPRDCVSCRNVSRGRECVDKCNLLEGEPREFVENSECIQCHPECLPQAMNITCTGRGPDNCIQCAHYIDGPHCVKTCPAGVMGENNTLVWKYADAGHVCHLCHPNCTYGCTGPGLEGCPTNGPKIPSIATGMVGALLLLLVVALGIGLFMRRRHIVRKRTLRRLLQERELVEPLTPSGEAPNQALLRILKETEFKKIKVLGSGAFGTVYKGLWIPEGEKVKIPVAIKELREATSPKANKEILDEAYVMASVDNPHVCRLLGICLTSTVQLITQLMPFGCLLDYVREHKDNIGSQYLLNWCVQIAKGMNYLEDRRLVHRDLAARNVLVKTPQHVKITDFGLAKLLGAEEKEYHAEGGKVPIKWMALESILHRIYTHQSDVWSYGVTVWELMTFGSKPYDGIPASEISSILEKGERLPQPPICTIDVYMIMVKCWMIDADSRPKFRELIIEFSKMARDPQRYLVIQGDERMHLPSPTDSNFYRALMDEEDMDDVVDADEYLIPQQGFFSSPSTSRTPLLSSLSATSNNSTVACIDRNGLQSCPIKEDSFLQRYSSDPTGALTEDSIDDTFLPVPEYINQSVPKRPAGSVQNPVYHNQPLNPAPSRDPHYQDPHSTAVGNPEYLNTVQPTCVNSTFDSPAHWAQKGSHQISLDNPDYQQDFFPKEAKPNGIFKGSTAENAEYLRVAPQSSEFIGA

In the case of `COc1cc(Nc2c(C#N)cnc3cc(-c4ccc(CCN5CCOCC5)cc4)ccc23)c(Cl)cc1Cl`, the 50% inhibitory concentration (IC50) amounted to 14 nM in assay [1] and 1000 nM in assay [2].

With `COc1cc(Nc2c(C#N)cnc3cc(-c4cccc(CCN5CCOCC5)c4)ccc23)c(Cl)cc1Cl`, the results for the IC50 in assay [1] and in assay [2] were 29 nM and 3200 nM, respectively.

On to `COc1cc(Nc2c(C#N)cnc3cc(-c4cccc(CN5CCN(C)CC5)c4)ccc23)c(Cl)cc1Cl`, for which the IC50 worked out at 14 nM in assay [1] and 2800 nM in assay [2].

Consider `CCN1CCN(CCc2ccc(-c3ccc4c(Nc5cc(OC)c(Cl)cc5Cl)c(C#N)cnc4c3)cc2)CC1`, for which the IC50 in assay [1] was determined as 3.7 nM; in assay [2], 1900 nM.

For the compound `CCN1CCN(Cc2ccc(-c3ccc4c(Nc5cc(OC)c(Cl)cc5Cl)c(C#N)cnc4c3)cc2)CC1`, the IC50 worked out at 3 nM in assay [1] and 960 nM in assay [2].

As for `COc1cc(Nc2c(C#N)cnc3cc(-c4cccc(CCN5CCOCC5)c4)c(OC)cc23)c(Cl)cc1Cl`, the IC50 in assay [1] turned out to be 74 nM; in assay [2], 12000 nM.

Regarding `COc1cc(Nc2c(C#N)cnc3cc(-c4ccc(CN5CCOCC5)cc4)ccc23)c(Cl)cc1Cl`, the IC50 in assay [1] stood at 3.3 nM; in assay [3] it was 3000 nM; in assay [2], 520 nM; in assay [5], 280 nM. Also, the inhibition in assay [4] was 10%.

Regarding `COc1cc(Nc2c(C#N)cnc3cc(OCCCN4CCN(C)CC4)c(OC)cc23)c(Cl)cc1Cl` [BOSUTINIB], it took 100 nM to reach half-maximal inhibition in assay [2] (IC50).

`COc1cc(Nc2c(C#N)cnc3cc(-c4ccc(CCN5CCOCC5)cc4)c(OC)cc23)c(Cl)cc1Cl`: the IC50 in assay [1] stood at 11 nM; in assay [2], 1300 nM.

`COc1cc(Nc2c(C#N)cnc3cc(-c4ccc(CN5CCOCC5)cc4)c(OC)cc23)c(Cl)cc1Cl`: the IC50 in assay [1] came out at 15 nM; in assay [2] it was 1500 nM.

For `COc1cc(Nc2c(C#N)cnc3cc(-c4ccc(CN5CCN(CCO)CC5)cc4)ccc23)c(Cl)cc1Cl`, the IC50 in assay [1] came out at 4.7 nM; in assay [2] it was 71 nM.

With `COc1cc(Nc2c(C#N)cnc3cc(-c4cccc(CN5CCOCC5)c4)c(OC)cc23)c(Cl)cc1Cl`, the IC50 came out at 150 nM in assay [1] and 8100 nM in assay [2].

Turning to `COc1cc(Nc2c(C#N)cnc3cc(-c4cccc(CN5CCOCC5)c4)ccc23)c(Cl)cc1Cl`, the IC50 in assay [1] came out at 28 nM; in assay [2], 3900 nM.

In the case of `CCN1CCN(Cc2ccc(-c3cc4ncc(C#N)c(Nc5cc(OC)c(Cl)cc5Cl)c4cc3OC)cc2)CC1`, the IC50 in assay [1] was 7 nM; in assay [2], 2000 nM.

With `COc1cc(Nc2c(C#N)cnc3cc(-c4ccccc4CN4CCOCC4)ccc23)c(Cl)cc1Cl`, the half-maximal inhibitory concentration (IC50) in assay [1] was 4000 nM; in assay [2], > 10000 nM.
